Patent US9408891B2, “Methods of using gelsolin to treat or prevent bacterial sepsis” (priority 2003, dated 2016)
Entries after “also recorded” stand apart in the source; their conditions may differ.

Columns and labels:
gelsolin [1] = target: T1, gelsolin (Homo sapiens, UniProt P06396); conditions: Goetzl et al. 2000; cited from earlier work
actin-binding proteins = conditions: Yamamura et al., FEBS Lett. 1996; cited from earlier work
gelsolin [2] = target: T1, gelsolin; test: Actin severing activity of gelsolin (50 nM) with LTA or lysolipids; format: biochemical
Description: The tested gelsolin concentration was 50 nM; LTA ranged from 0-50 μM; Pyrene-F-actin was 0.3 μM. Recording changes in fluorescently-labeled (rhodamine B-labeled) gelsolin peptide PBP10 (10 μM), indicates a specific interaction between gelsolin and LTA.

[3] = test system: LPS-binding protein (LBP); test: Binding of 125I-LBP to gelsolin-coated wells
Description: To determine competition between gelsolin and LPS-binding proteins (LPB), a high affinity carrier for LPS, […]), washed and preincubated with different amount of recombinant human gelsolin (0-2 ng/well) in […] (0.5 mg/ml) containing RPMI. RPMI medium refers to Roswell Park Memorial Institute medium, typically used to culture human lymphoid cells. Then, 10 μl of ^125I-LPB (6×10^4 cpm) were added, and the plates were incubated for 90 minutes at 37° C., then washed six times with RPMI. After that, the bound radioactivity was measured.

[4] = test system: NF-κB translocation in rat primary astrocytes; test: NF-κB translocation to the nucleus in astrocytes; format: cell-based; conditions: LPS preincubated with 1.8 μM gelsolin, 2 hour incubation
Description: Rat primary astrocytes were obtained from prenatal rats and maintained for 14 days in culture before use. Embryos (E17-E19) were removed by caesarian section from a Sprague-Dawley rat and the hippocampi were surgically removed. The tissue was digested in trypsin/DNAse at 37° C., centrifuged (1000×5 min) and filtered to derive suspensions from each pup. Cells were grown in an incubator at 37° C. and 5% CO2 in DMEM (Dulbecco's Modified Eagle's Medium; BioWhittaker/Cambrex BioScience, East Rutherford, N.J.), supplemented with Ham's F12 (Sigma-Aldrich, St. Louis, Mo.) and 5% fetal bovine serum (FBS) (Hyclone, Logan, Utah) for 7 days, followed by an additional 7 days in Neurobasal medium (Gibco, Grand Island, N.Y.) also supplemented with 5% FBS, 2 mM l-glutamine, 50 μg/ml streptomycin and 50 U/ml penicillin. In each experiment, the medium was changed to serum-free at 6-12 hours prior to addition of LPS, TNF-α, or gelsolin.
HAECs and astrocytes cultures were incubated for 10 minutes in medium containing 10 μg/ml LPS alone, or LPS that had been pre-incubated with 0.16 mg/ml of human gelsolin. Cultures were fixed with ice-cold methanol and immunostained for F-actin with fluorescein isothiocyanate (FITC)-labeled phalloidin (Molecular Probes, Eugene, Oreg.). In astrocyte cultures, NF-κB translocation was manipulated by a 2 hour incubation in serum-free medium containing one of the following: 10 ng/ml TNF-α, 10 μg/ml LPS alone, or LPS that had been preincubated with 0.16 mg/ml human gelsolin. Location of transcription factor nuclear factor-kappaB (NF-κB) was observed using a monoclonal antibody to NF-κB (Molecular Probes), and cell nuclei were detected by counter-staining with 4′, 6-diamidino-2-phenylindole dihydrochloride (DAPI) (Sigma).

[5] = test system: binding of LPS-binding protein (LBP) to LPS; test: Competition of gelsolin with 125I-LBP for LPS-coated wells (solid phase); conditions: nanomolar concentrations of gelsolin
Description: To determine competition between gelsolin and LPS-binding proteins (LPB), a high affinity carrier for LPS, the LPS-coated wells (1 nmole/per well of LPS Re-595 from Salmonella minnesota) were saturated by incubation (2 hours, 20° C.) with […] 2 mg/ml in RPMI), washed and preincubated with different amount of recombinant human gelsolin (0-2 ng/well) in […] (0.5 mg/ml) containing RPMI. RPMI medium refers to Roswell Park Memorial Institute medium, typically used to culture human lymphoid cells. Then, 10 μl of ^125I-LPB (6×10^4 cpm) were added, and the plates were incubated for 90 minutes at 37° C., then washed six times with RPMI. After that, the bound radioactivity was measured.

rat primary astrocytes = test: LPS-induced actin cytoskeleton disassembly, phalloidin staining, astrocytes; format: cell-based; conditions: 2 μM (10 μg/ml) LPS preincubated with 1.8 μM (0.16 mg/ml) gelsolin, 10 min, listed as plasma gelsolin
Description: (§1) In light of the findings in the previous Examples, and using the materials prepared in above, the effect of the gelsolin binding by LPS was studied to determine the effect on cellular responses in vitro. Cell cultures of human aortic endothelial cells (HAEC) and rat primary astrocytes were used to evaluate the effect of LPS on actin. Both of these cell types have mCD14 (membrane bound C14) and TLR LPS receptors (Faure, et al., J. Biol. Chem. 275:11058-11063 (2000); Bsibsi, et al., J. Neuropathol. Exp. Neurol. 61:1013-1021 (2002); Bowman, et al., Glia 43:281-291 (2003)).
Rat primary astrocytes were obtained from prenatal rats and maintained for 14 days in culture before use. Embryos (E17-E19) were removed by caesarian section from a Sprague-Dawley rat and the hippocampi were surgically removed. The tissue was digested in trypsin/DNAse at 37° C., centrifuged (1000×5 min) and filtered to derive suspensions from each pup. […]
(§2) HAECs and astrocytes cultures were incubated for 10 minutes in medium containing 10 μg/ml LPS alone, or LPS that had been pre-incubated with 0.16 mg/ml of human gelsolin. […] Location of transcription factor nuclear factor-kappaB (NF-κB) was observed using a monoclonal antibody to NF-κB (Molecular Probes), and cell nuclei were detected by counter-staining with 4′, 6-diamidino-2-phenylindole dihydrochloride (DAPI) (Sigma).

[6] = test system: human neutrophils / human aortic endothelial cells (HAEC); test: Neutrophil adhesion to LTA-stimulated HAEC; format: cell-based; conditions: gelsolin 2 μM added along with LTA 10 μg/ml
Description: To investigate whether gelsolin can prevent gram-positive bacterial inflammation, the effect of LTA-mediated activation of human neutrophils was examined. Neutrophils were selected because their adhesion to human aorta endothelial cells (HAEC) is a hallmark of inflammation.
Neutrophils were isolated from human blood using the endotoxin-free Lympholyte-poly kit (Cedarlane, Ontario, Canada). The isolated neutrophil cells were resuspended in RPMI media. […] To quantify the adhesion, the neutrophils were labeled with calcein-AM (5 μM for 30 minutes at 37° C.).

[7] = test system: endotoxemic C57BL/6 mice (25 mg/kg LPS E. coli 055:B5 i.p.); test: Mortality study of mice challenged with lethal E. coli LPS and treated with GSN, BSA or saline; format: in vivo, mouse
Description: To study the effect on mortality, animals are injected i.p. with 25 mg/kg LPS (E. coli 055:B5, Sigma) and each mouse is randomly selected to receive one of the following three treatments: 1) GSN (containing: 8 mg of recombinant human plasma gelsolin (Biogen-IDEC, Inc) containing 1 mM Ca dissolved in 400 μl of 0.15 M NaCl (saline); or 2) BSA (containing: 8 mg of bovine albumin (Serologicals Proteins, Inc, Kankakee, Ill.) containing 1 mM Ca dissolved in 400 μl of saline, or 3) saline (containing only 400 μl saline). The GSN (gelsolin), BSA or saline solutions are administered subcutaneously at the dorsal surface of each animal immediately after LPS instillation, and then repeated at 24, 48, and 72 hours.
There are 9 mice in the saline group and 8 mice each in the GSN group and the BSA group. Animals are monitored frequently, and mortality is recorded and presented at an interval of days. Animal mortality study data are presented as Kaplan-Meier curves and log-rank test is used to analyze treatment impact on animal mortality. Ap-value less than 0.05 is considered significant.
To measure gelsolin in vivo, a nucleation assay for plasma gelsolin is performed as follows: the collected mouse plasma is diluted 1:5 in Buffer B (0.1 M KCI, 0.2 mM MgCl2, 1 mM EGTA (ethyleneglycol-bis(2-aminoethyl) N,N,N′,N′,-tetraacetic acid), 0.5 mM ATP, 0.5 mM β-mercaptoethanol, 10 mM Tris-HCl buffer, pH 7.4). From the diluted plasma sample, 5 μl is added to 280 μl Buffer B supplemented with 1.5 mm […] and 0.4 μM phallacidin in 6×50 mm borosilicate culture tubes. The actin polymerization reaction is initiated by adding 15 μl 20 μM pyrene-actin in Buffer A (0.5 mM ATP, 0.5 mM β-mercaptoethanol, 0.2 mM CaCl2 […] buffer, pH 7.4). Polymerization is monitored for 200 seconds in a spectrofluorimeter at excitation and emission wavelengths of 366 and 386 nm respectively. Gelsolin concentrations are estimated from a standard curve using recombinant human plasma gelsolin.

[8] = test system: human aortic endothelial cells (HAEC); test: LPS-induced actin cytoskeleton disassembly, phalloidin staining, endothelial cells; format: cell-based; conditions: 2 μM (10 μg/ml) LPS preincubated with 1.8 μM (0.16 mg/ml) gelsolin, 10 min, listed as plasma gelsolin
Description: as §1
HAECs (primary human aortic endothelial cells) (ATCC, Rockville, Md. or Clonetics, San Diego, Calif.), will grow to confluence through passages 5-9 in endothelial cell growth medium supplemented with 2% fetal bovine serum, 10 μg/liter human recombinant epidermal growth factor, 1 mg/liter hydrocortisone, 50 μg/ml gentamicin, 50 ng/ml amphotericin-B, in a 37° C. humidified atmosphere of 95% air:5% C02.
as §2

[9] = target: T2, recombinant human gelsolin (rhGLS) (Homo sapiens, UniProt P06396); test: Change of gelsolin OD at 280 nm after adding lipids; format: binding; conditions: OD 280 nm
T2 construct: purchased Biogen IDEC, Inc., Cambridge, Mass; host or cells: E. coli
Description: (§3) Therefore, to determine changes of gelsolin OD at 280 nm, different amounts of LPS, LPA and PS were added to recombinant human gelsolin (rhGLS) solutions and OD emission spectra were recorded using spectrophotometer Genesys 6 (Thermo-Spectronic, USA).

[10] = target: T3, pyrene-labeled SEQ ID No:1 (gelsolin residues 160-169) (Homo sapiens, UniProt P06396); test: Pyrene excimer fluorescence of pyrene-labeled SEQ ID No:1 after adding lipids; format: binding; conditions: 2 μM pyrene peptide
T3 construct: made in house; host or cells: solid phase peptide synthesis
Description: as §3
Interaction of LPS and gelsolin was examined using rhodamine B- and pyrene-labeled SEQ ID No:1 (QRLFQVKGRR). The effect of LPS on gelsolin was determined in terms of the rhodamine-B fluorescent changes of PBP10 peptide in the presence of different lipids (FIG. 1C); and the fluorescence emission spectra of pyrene-labeled SEQ ID No:1 (2 μM) in the presence of LPS from Escherichia coli (1.2 μM), PIP2 (0.82 μM) and LPA (0.82 μM) (FIG. 1D) The results using the pyrene-derivatized gelsolin peptide confirmed the LPS induced clustering of the peptide with resulting excimer fluorescence of the pyrene group, which was evident as a large increase in fluorescence emission at 480 nm.

[11] = target: T2, recombinant human gelsolin (rhGLS); test: Actin filament severing activity of purified gelsolin (pyrene F-actin depolymerization); format: biochemical; conditions: molar basis comparison
Description: To determine gelsolin's severing activity, rates of fluorescence decrease were evaluated during depolymerization. Monomeric G-actin was prepared from an acetone powder of rabbit skeletal muscle according to previously published methods (Spudich et al., J. Biol. Chem […]). The non-polymerizing solution contained 2 mM TRIS, 0.2 mM CaCl2, 0.5 mM ATP (adenosine triphosphate), 0.2 mM DTT (dithiothreitol) pH 7.4. Actin was polymerized by adding 150 mM KCl and 2 mM MgCl2 to the G-actin solutions and incubating for 1 hour at room temperature.
For F-actin severing assays, in general, a small volume (typically 5 μl) of the gelsolin composition is added to a similar volume of pyrene-labeled F-actin at a concentration adjusted to provide an actin:gelsolin ratio of approximately 10:1 (typically 1 μM gelsolin and 10 μM actin). This mixture is the diluted to 0.5 μM in a larger volume of F-actin buffer, and the filament severing efficiency is calculated from the initial slope of the fluorescence change. This reflects the rate of depolymerization that, in turn, is proportional to the number of cuts made by gelsolin. The LPS/gelsolin reaction can be done under any ionic condition, and the addition to F-actin requires the presence of […] Ca^2+ to activate the gelsolin. […] The actin nucleation reaction is similar except that in the latter case, the gelsolin/LPS mixture is added to a more dilute solution of G-actin (typically, 1 or 2 μM) in low ionic strength buffer followed immediately by addition of 150 mM KCI and 2 mM MgCl2 to initiate polymerization.
As shown, recombinant human gelsolin (rhGLS) (FIG. 4A) and blood serum (FIG. 4B) severing activity was measured in 0.4 μM pyrene-labeled F-actin samples (polymerized with 50% pyrene-labeled G-actin), after adding gelsolin (16 nM)/serum (2.5 μl), or their combination with one of the following: LPS (from different species), PIP2 (phosphatidyl-inositol-4,5-bisphosphate), LPA (lysophosphatidic acid), lipid A (the LPS derivative lacking polysaccharide) or PS (phosphatidylserine). The fluorescence intensity of F-pyrene actin was then monitored for 10 minutes, and the severing activity was calculated based on decreasing fluorescence. Severing activity was determined from a decrease in rate of fluorescence during depolymerization, and the depolymerization rate was calculated from the slope of the early decrease in fluorescence.

T2 sequence (P06396 28-782): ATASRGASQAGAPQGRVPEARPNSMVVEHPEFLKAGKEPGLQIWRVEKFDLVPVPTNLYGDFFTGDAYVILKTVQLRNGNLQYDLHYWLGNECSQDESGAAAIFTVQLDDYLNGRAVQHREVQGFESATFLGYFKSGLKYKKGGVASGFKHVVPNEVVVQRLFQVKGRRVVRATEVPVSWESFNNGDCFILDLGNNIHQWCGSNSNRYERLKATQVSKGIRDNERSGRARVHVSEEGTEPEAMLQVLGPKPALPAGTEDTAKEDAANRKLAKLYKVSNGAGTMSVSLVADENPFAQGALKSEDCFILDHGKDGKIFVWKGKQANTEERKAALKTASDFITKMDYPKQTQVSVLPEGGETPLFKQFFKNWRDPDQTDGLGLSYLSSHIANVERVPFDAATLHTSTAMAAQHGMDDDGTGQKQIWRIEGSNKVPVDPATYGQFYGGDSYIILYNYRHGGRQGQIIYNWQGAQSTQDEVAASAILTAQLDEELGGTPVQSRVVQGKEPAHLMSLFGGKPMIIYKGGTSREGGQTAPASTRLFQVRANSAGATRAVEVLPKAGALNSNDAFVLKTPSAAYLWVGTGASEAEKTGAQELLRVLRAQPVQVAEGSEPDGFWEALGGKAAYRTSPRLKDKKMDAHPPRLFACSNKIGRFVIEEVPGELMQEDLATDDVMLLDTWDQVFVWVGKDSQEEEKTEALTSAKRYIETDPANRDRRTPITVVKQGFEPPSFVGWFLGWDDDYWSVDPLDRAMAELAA
T1 sequence (P06396 28-782): as above

In the case of `CCCCCCCCCCCCC/C=C/[C@@H](O)[C@@H](N)COP(=O)(O)O` [S1P, Sphingosine-1-phosphate], the “binding of S1P by gelsolin” value (gelsolin [1]) is given as “did not bind”, the maximal dissociation (actin-binding proteins) is given as 10% and the “inhibition of gelsolin at higher lipid concentrations” value (gelsolin [2]; above 1 μM) is given as “abrupt drop-off of activity”. The “inhibition of gelsolin by lysolipids” value (gelsolin [2]; lipid below 1 μM) was “at least as strongly as lysophosphatidic acid (LPA); also recorded: also inhibit gelsolin; also recorded: as least as strongly as LPA does”.
In the case of gelsolin, the “direct binding of 125I-LBP to gelsolin-coated surfaces” value [3] is reported as “did not bind to gelsolin-coated surfaces; also recorded: does not interact directly with the LBP; also recorded: does not bind to gelsolin-coated surfaces”, the “blocking of LPS-induced NF-κB translocation” value [4] is reported as “completely blocked; also recorded: blocked LPS-induced translocation; also recorded: blocked by pre-incubation with gelsolin” and the “inhibition of 125I-LBP binding to LPS coated wells” value [5] is reported as 69±6%. For the same compound, the “effect of gelsolin-preincubated LPS on actin cytoskeleton” value (rat primary astrocytes) was “no discernable effect on the actin cytoskeletons; also recorded: prevented LPS-induced actin cytoskeleton disassembly”, the “effect on neutrophil adhesion to LTA-stimulated HAEC” value [6] was “inhibit neutrophil adhesion; also recorded: reduced to near baseline values; also recorded: prevents LTA activation of endothelial cells” and the “survival compared to saline or BSA controls” value ([7]; 8 mg s.c. immediately after LPS and at 24, 48, 72 hours, listed as plasma gelsolin) was “rescues the endotoxemic mice; also recorded: markedly improved survival”. For the same compound, the “condition of surviving mice” value ([7]; Day 7 / after 1 week) was “complete recovery”, the “plasma gelsolin level restored in LPS-treated animals” value ([7]; s.c. administration) was 200 µg/mL and the “effect of gelsolin-preincubated LPS on actin cytoskeleton” value [8] was “no discernable effect on the actin cytoskeletons; also recorded: prevented LPS-induced actin cytoskeleton disassembly”.
In the case of phosphatidylserine [PS], the “effect on absorbance of gelsolin” value [9] is reported as “had no effect”, the “induction of pyrene excimer formation (emission 480 nm)” value [10] is reported as “had no effect” and the “inhibitory effect on severing activity of purified gelsolin” value [11] is reported as “had no effect; also recorded: no inhibitory effect; also recorded: have no effect”.
